# Reference: publication PMC7775894 (Bioorganic chemistry, 2020)
# Values joined by “and” are separate entries in the source; they are usually repeats but may differ in a detail not shown here. Identical values can stand only once. Like-named read-outs stand apart in the source and are kept apart here.
# What was measured:
# M. tb KZN494/MDR = experiment: microbe, parasite or virus in culture; format: cell-based; conditions: Mycobacterium tuberculosis, read-out: M. tb MIC KZN494/MDR
# M. tb V2475/MDR = experiment: microbe, parasite or virus in culture; format: cell-based; conditions: Mycobacterium tuberculosis, read-out: M. tb MIC V2475/MDR
# M. tb R506/XDR = experiment: microbe, parasite or virus in culture; format: cell-based; conditions: Mycobacterium tuberculosis, read-out: M. tb MIC R506/XDR
# M. tb TF274/XDR = experiment: microbe, parasite or virus in culture; format: cell-based; conditions: Mycobacterium tuberculosis, read-out: M. tb MIC TF274/XDR
# M. tb H37Rv strain = conditions: cited from earlier work
smiles,measurement,setting,value
"COc1cccc2[nH]c(C(=O)NC34CC5CC(CC(C5)C3)C4)cc12 [8b, N-(1-Adamantyl)-4-methoxy-1H-indole-2-carboxamide]",MIC,M. tb KZN494/MDR,0.048 µM
same,MIC,M. tb V2475/MDR,0.096 µM
same,MIC,M. tb R506/XDR,0.024 to 0.048 µM
same,MIC,M. tb TF274/XDR,0.024 to 0.048 µM
"COc1ccc2[nH]c(C(=O)NC34CC5CC(CC(C5)C3)C4)cc2c1 [8d, N-(1-Adamantyl)-5-methoxy-1H-indole-2-carboxamide]",MIC,M. tb KZN494/MDR,0.39 µM
same,MIC,M. tb V2475/MDR,0.39 to 0.77 µM
same,MIC,M. tb R506/XDR,0.39 µM
same,MIC,M. tb TF274/XDR,0.39 µM
"Cc1ccc2[nH]c(C(=O)NC34CC5CC(CC(C5)C3)C4)cc2c1 [8f, N-(1-Adamantyl)-5-methyl-1H-indole-2-carboxamide]",MIC,M. tb KZN494/MDR,0.2 µM
same,MIC,M. tb V2475/MDR,0.2 µM
same,MIC,M. tb R506/XDR,0.1 to 0.2 µM
same,MIC,M. tb TF274/XDR,0.1 to 0.2 µM
"O=C(NC12CC3CC(CC(O)(C3)C1)C2)c1cc2ccc(Br)cc2[nH]1 [8i, 6-bromo-N-(3-hydroxyadamantan-1-yl)-1H-indole-2-carboxamide]",MIC,M. tb KZN494/MDR,2.57 to 5.14 µM
same,MIC,M. tb V2475/MDR,5.14 µM
same,MIC,M. tb R506/XDR,2.57 µM
same,MIC,M. tb TF274/XDR,2.57 µM
"O=C(NC12CC3CC(CC(O)(C3)C1)C2)c1cc2c(Cl)cc(Cl)cc2[nH]1 [8j, 4,6-dichloro-N-(3-hydroxyadamantan-1-yl)-1H-indole-2-carboxamide]",MIC,M. tb KZN494/MDR,1.32 µM
same,MIC,M. tb V2475/MDR,2.64 µM
same,MIC,M. tb R506/XDR,0.66 µM
same,MIC,M. tb TF274/XDR,0.66 µM
"O=C(NC12CC3CC(CC(C3)C1)C2)c1cc2c(F)cc(F)cc2[nH]1 [8k, N-(1-Adamantyl)-4,6-difluoro-1H-indole-2-carboxamide]",MIC,M. tb KZN494/MDR,0.024 µM
same,MIC,M. tb V2475/MDR,0.024 µM
same,MIC,M. tb R506/XDR,0.012 µM
same,MIC,M. tb TF274/XDR,0.012 µM
"O=C(NC12CC3CC(CC(O)(C3)C1)C2)c1cc2c(F)cc(F)cc2[nH]1 [8l, 4,6-difluoro-N-(3-hydroxyadamantan-1-yl)-1H-indole-2-carboxamide]",MIC,M. tb KZN494/MDR,2.89 µM
same,MIC,M. tb V2475/MDR,5.77 µM
same,MIC,M. tb R506/XDR,2.89 µM
same,MIC,M. tb TF274/XDR,1.44 µM
"O=C(Nc1cc(Cl)cc(Cl)c1)NC12CC3CC(CC(C3)C1)C2 [10a, 1-(1-Adamantyl)-3-(3,5-dichlorophenyl)urea]",MIC,M. tb KZN494/MDR,1.47 µM
same,MIC,M. tb V2475/MDR,1.47 to 2.95 µM
same,MIC,M. tb R506/XDR,0.74 µM
same,MIC,M. tb TF274/XDR,0.74 µM
"O=C(O)c1cn(C2CC2)c2cc(N3CCNCC3)c(F)cc2c1=O [CPF, Ciprofloxacin, reference compound]",MIC,M. tb R506/XDR,6.04 µM
same,MIC,M. tb TF274/XDR,6.04 µM
"CC[C@@H](CO)NCCN[C@@H](CC)CO [EMB, ethambutol]",MIC,M. tb H37Rv strain; listed as ethambutol,4.89 µM
same,MIC,M. tb H37Rv strain; ref 22,4.89 [22] μM
"NNC(=O)c1ccncc1 [INH, isoniazid]",MIC,M. tb H37Rv strain; ref 22,0.29 μM and 0.29 [22] μM
O=C(Nc1ccc(F)c(F)c1F)NC1C2CC3CC(C2)CC1C3 (centres unmarked) [compound 4],MIC,M. tb H37Rv strain; ref 22,0.096 to 0.19 µM
